Assay results as given in publication PMC9708767, “Synthesis of Polymer Precursor 12-Oxododecenoic Acid Utilizing Recombinant Papaya Hydroperoxide Lyase in an Enzyme Cascade” (Applied Biochemistry and Biotechnology, 2022).

Assays:
[1] = target: HPLCP-N (Carica papaya, UniProt Z9RAA0G2V7); assay: photometric, decrease at […] nm, nonlinear regression; format: biochemical; settings: 50 mM potassium phosphate pH 6, 1 M NaCl, 22 °C; 5-100 µM substrate; affinity-enriched enzyme
[2] = target: N-terminally truncated hydroperoxide lyase from Carica papaya (HPL_(CP-N)) (Carica papaya); assay: SEC; Superdex 200 Increase 10/300; 50 mM potassium phosphate buffer pH 7 with 0.5 M NaCl and 0.1% Triton X-100; calibrated with gel filtration markers of 29,000 to 700,000 Da; calculated mass compared with the predicted monomer mass

HPLCP-N, sequence (Z9RAA0G2V7 36-496 limits assumed): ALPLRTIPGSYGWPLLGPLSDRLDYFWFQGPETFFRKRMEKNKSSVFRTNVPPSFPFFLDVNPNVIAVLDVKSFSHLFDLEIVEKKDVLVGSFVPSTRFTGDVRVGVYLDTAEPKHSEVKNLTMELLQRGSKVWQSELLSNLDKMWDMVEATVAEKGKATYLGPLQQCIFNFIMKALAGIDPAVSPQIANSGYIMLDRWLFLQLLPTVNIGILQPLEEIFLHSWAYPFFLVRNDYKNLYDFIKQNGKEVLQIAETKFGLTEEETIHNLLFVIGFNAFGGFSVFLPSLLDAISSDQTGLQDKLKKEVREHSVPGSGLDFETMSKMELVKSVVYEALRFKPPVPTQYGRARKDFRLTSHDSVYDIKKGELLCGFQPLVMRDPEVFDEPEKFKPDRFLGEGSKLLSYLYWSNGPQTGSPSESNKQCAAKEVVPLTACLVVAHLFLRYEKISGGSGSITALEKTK

Km [1] | stoichiometry N [2] | Molecule
140 ± 30 µM |  | CCCCC[C@@H](/C=C/C=C\CCCCCCCC(=O)O)OO [13S-HPODE]
150 ± 40 µM |  | CC/C=C\C[C@@H](/C=C/C=C\CCCCCCCC(=O)O)OO [13S-HPOTE]
 | 4 | N-terminally truncated hydroperoxide lyase from Carica papaya (HPL_(CP-N)) (enzyme)
